Values after ≈ are worked out from the molar mass of the structure shown. Values joined by “and” are separate entries in the source; they are usually repeats but may differ in a detail not shown here. Equal values may be shown once.

The nature of series [1]: Metabolic stability in mouse liver microsomes. The series is classed as in vitro ADME, mouse (CD-1 Mouse). In general terms: Liver microsomes are a subcellular fraction often used to study metabolism.
The subject of series [2] is VIM-expressing sarcoma cell lines HT-1080, RD, GCT. The series is classed as cell-based. Particulars: for improvement in potency: VIM-expressing sarcoma cell lines, compared to FiVe1.
The next series deals with HT-1080 cells. Nature of the series: Cell proliferation assay. Particulars: for improvement in selectivity: cell type selectivity (vs MCF-7), compared to FiVe1; for SI (HT-1080 vs MCF-7): selectivity index, ratio of IC50 values HT-1080 and MCF-7. It counts as cell-based.
Series [3] in a line: Pharmacokinetic study in mouse. The series is classed as in vivo.
Series [4] has as its system vimentin (VIM) Ser56 phosphorylation. In words: Western blot of VIM Ser56 phosphorylation in HT-1080, RD and GCT sarcoma cells. The series is classed as cell-based. Particulars: 24 h, HT-1080, RD and GCT cells.
Series [5] can be described thus: HPLC-based kinetic solubility in DPBS. The note with it: for improvement in solubility: compared to FiVe1, DPBS. The series is classed as physicochemical.
In a further series the target is panel of ~100 kinases. The note with it: concentrations up to 10 μM; cited from earlier work.
Series [6] in a line: Metabolite identification in incubations with mouse hepatocytes. The series is classed as in vitro ADME. The note with it: FiVe1 incubated with mouse hepatocytes, LC-MS/MS, peak area λ = 252–420 nm.
Series [7] has as its system VIM-expressing mesenchymal cancer cell lines. Particulars: anti-proliferative effects compared with cells that lack VIM expression; cited from earlier work.

“3-(3-chloro-5-(4-(8-chlorocinnolin-4-yl)piperazin-1-yl)phenoxy)propane-1,2-diol [Compound 11e]” gave a T1/2 in series [1] (mouse liver microsomes) of 42.7 min. In addition, the “Remaining (T= 60 min)” value in series [1] (mouse liver microsomes, 60 min) is on record as 35.7%. The “CLint(mic)” value in [1] (mouse, microsomes) was 32.5 µL/min/mg.
For the compound `Clc1cc(Cl)cc(N2CCN(c3cnnc4c(Cl)cccc34)CC2)c1` [Compound 4a, 8-chloro-4-(4-(3,5-dichlorophenyl)piperazin-1-yl)cinnoline], the improvement in potency in series [2] is given as ~ 4 fold.
Take `N#Cc1cc(Cl)cc(N2CCN(c3cnnc4c(Cl)cccc34)CC2)c1` [Compound 4b, 3-chloro-5-(4-(8-chlorocinnolin-4-yl)piperazin-1-yl)benzonitrile]: the improvement in potency in series [2] is listed as ~ 4 fold.
In series [2], `COc1cc(OC)cc(N2CCN(c3cnnc4c(Cl)cccc34)CC2)c1` [Compound 4c, 8-chloro-4-(4-(3,5-dimethoxyphenyl)piperazin-1-yl)cinnoline] returned an improvement in potency above 20 fold. Further, the improvement in selectivity in the series with HT-1080 cells is on record as above 15 fold.
For `COc1cccc(N2CCN(c3cnnc4c(Cl)cccc34)CC2)c1` [Compound 4d, 8-chloro-4-(4-(3-methoxyphenyl)piperazin-1-yl)cinnoline], in that order: above 2 fold and above 2 fold.
Compound `COc1cc(Cl)cc(N2CCN(c3cnnc4c(Cl)cccc34)CC2)c1` [Compound 4e, 8-chloro-4-(4-(3-chloro-5-methoxyphenyl)piperazin-1-yl)cinnoline] displayed an improvement in potency in [2] above 20 fold. Moreover, in [3] (ip 1 mg/kg), the Tlast stood at 4 h. Moreover, the improvement in bioavailability in series [3] (oral, compared to FiVe1, assuming dose proportional absorption) is recorded as ~ 4 fold. The improvement in selectivity in the series on HT-1080 cells is > 10 fold and 19 fold and > 15 fold. Besides, in [4], the “VIM Ser56 phosphorylation (Western immunoblot)” value (“VIM Ser56 phosphorylation” below) was “induce VIM Ser56 phosphorylation at 10-fold lower concentration (100 nM)”.
With `Clc1cc(N2CCCC2)cc(N2CCN(c3cnnc4c(Cl)cccc34)CC2)c1` [Compound 4f, 8-chloro-4-(4-(3-chloro-5-(pyrrolidin-1-yl)phenyl)piperazin-1-yl)cinnoline], the “inhibition of mesenchymal cancer cell growth (in words)” value in series [2] is reported as “total loss in activity”.
In the case of `Oc1cc(Cl)cc(N2CCN(c3cnnc4c(Cl)cccc34)CC2)c1` [Compound 4g, 3-chloro-5-(4-(8-chlorocinnolin-4-yl)piperazin-1-yl)phenol], the improvement in potency in series [2] is given as above 20 fold. Also, the improvement in selectivity in the series on HT-1080 cells was above 10 fold.
For `Nc1cc(Cl)cc(N2CCN(c3cnnc4c(Cl)cccc34)CC2)c1` [Compound 4i, 3-chloro-5-(4-(8-chlorocinnolin-4-yl)piperazin-1-yl)aniline], the improvement in potency in series [2] was ~ 2 fold. The improvement in selectivity in the series on HT-1080 cells is reported as ~ 2 fold.
One may read the IC50 as the midpoint of a concentration-inhibition curve. As to `CC(=O)Nc1cc(Cl)cc(N2CCN(c3cnnc4c(Cl)cccc34)CC2)c1` [Compound 4j, N-(3-chloro-5-(4-(8-chlorocinnolin-4-yl)piperazin-1-yl)phenyl)acetamide], the IC50 in series [2] (Homo sapiens, HT-1080, read-out: IC50 values) was around 10 µM.
Regarding `C[C@H]1CN(c2cnnc3c(Cl)cccc23)CCN1c1cc(Cl)cc(Cl)c1` [Compound 7a, (S)-8-chloro-4-(4-(3,5-dichlorophenyl)-3-methylpiperazin-1-yl)cinnoline], the “loss in antiproliferative potency” value in series [2] (compared with its analog 4a) is ~ 2 fold.
With `Clc1cccc(N2CCN(c3ccnc4c(Cl)cccc34)CC2)c1` [Compound 10d, 8-chloro-4-(4-(3-chlorophenyl)piperazin-1-yl)quinoline], the “VIM Ser56 phosphorylation” value in series [4] is “inactive”.
For orientation: solubility means how much of the substance goes into solution per volume. In series [5] (DPBS, pH 7.4), `NCCOc1cc(Cl)cc(N2CCN(c3cnnc4c(Cl)cccc34)CC2)c1` [Compound 11a, 2-(3-chloro-5-(4-(8-chlorocinnolin-4-yl)piperazin-1-yl)phenoxy)ethan-1-amine] displayed a solubility at 16 h of 68 µM (≈ 28.4 µg/mL). Besides, the improvement in solubility in series [5] is above 40 fold. Further, the “SI (HT-1080 vs MCF-7)” value with HT-1080 cells is above 5.
In turn, `CN(C)CCOc1cc(Cl)cc(N2CCN(c3cnnc4c(Cl)cccc34)CC2)c1` [Compound 11b, 2-(3-chloro-5-(4-(8-chlorocinnolin-4-yl)piperazin-1-yl)phenoxy)-N,N-dimethylethan-1-amine] gave an improvement in solubility in [5] above 40 fold.
Compound `CN(C)CCCOc1cc(Cl)cc(N2CCN(c3cnnc4c(Cl)cccc34)CC2)c1` [Compound 11c, 3-(3-chloro-5-(4-(8-chlorocinnolin-4-yl)piperazin-1-yl)phenoxy)-N,N-dimethylpropan-1-amine] yielded an improvement in solubility in [5] above 40 fold.
`OCCOc1cc(Cl)cc(N2CCN(c3cnnc4c(Cl)cccc34)CC2)c1` [Compound 11d, 2-(3-chloro-5-(4-(8-chlorocinnolin-4-yl)piperazin-1-yl)phenoxy)ethan-1-ol] showed an improvement in potency in series [2] above 3 fold. Moreover, in the series on HT-1080 cells, the “SI (HT-1080 vs MCF-7)” value is reported as above 40.
Turning to `COCCOc1cc(Cl)cc(N2CCN(c3cnnc4c(Cl)cccc34)CC2)c1` [Compound 11f, 8-chloro-4-(4-(3-chloro-5-(2-methoxyethoxy)phenyl)piperazin-1-yl)cinnoline], the “SI (HT-1080 vs MCF-7)” value in the series on HT-1080 cells is above 12.
Regarding `COC(COc1cc(Cl)cc(N2CCN(c3cnnc4c(Cl)cccc34)CC2)c1)OC` [Compound 11g, 8-chloro-4-(4-(3-chloro-5-(2,2-dimethoxyethoxy)phenyl)piperazin-1-yl)cinnoline], in the series on HT-1080 cells (Homo sapiens, HT-1080, 72 h, read-out: IC50 HT-1080), the IC50 was 13.6 ± 1.18 µM. For the same compound, the “SI (HT-1080 vs MCF-7)” value with HT-1080 cells is above 2.
Regarding `COC(=O)CCOc1cc(Cl)cc(N2CCN(c3cnnc4c(Cl)cccc34)CC2)c1` [Compound 11j, methyl 3-(3-chloro-5-(4-(8-chlorocinnolin-4-yl)piperazin-1-yl)phenoxy)propanoate], the “SI (HT-1080 vs MCF-7)” value in the series with HT-1080 cells is given as above 20.
Take `O=C(O)CCOc1cc(Cl)cc(N2CCN(c3cnnc4c(Cl)cccc34)CC2)c1` [Compound 11k, 3-(3-chloro-5-(4-(8-chlorocinnolin-4-yl)piperazin-1-yl)phenoxy)propanoic acid]: the “SI (HT-1080 vs MCF-7)” value with HT-1080 cells is above 13.
For the compound `Clc1cccc(N2CCN(c3cnnc4c(Cl)cccc34)CC2)c1` [FiVe1], the kinase inhibition result on panel of ~100 kinases is “not found to be an inhibitor of any cell cycle or cytokinesis-related kinase”. This compound also returned a Tlast in series [3] (po 25 mg/kg) of 18 h. For the same compound, the “% Peak Area” value in series [6] was determined as 6%. Moreover, in series [4], the “VIM Ser56 phosphorylation” value is reported as “induced Ser56 phosphorylation at 1 μM but not at 100 nM”. For the same compound, the cell-based therapeutic index in series [7] was above 10.

Values taken from PMC10377566 (European journal of medicinal chemistry, 2022).
